Experimental data: patent publication US9221765B2, “Inhibition and dispersion of bacterial biofilms with benzimidazole derivatives” (North Carolina State University, priority 2009, dated 2015)

Experiments:
S. epidermidis = assay: Inhibition of S. epidermidis biofilm formation (crystal violet); type: cell-based, Staphylococcus epidermidis; details: FeSO4 alone, no test compound
Method: (§1) A dose-response study was then initiated in which both the IC50 and EC50 value of each compound towards the bacterial strains were determined (Table 1). Here, IC50 is defined as the concentration of compound that inhibits 50% biofilm development while EC50 is defined as the concentration of compound that disperses 50% of a pre-formed biofilm.
(§2) Procedure to Determine the Inhibitory Effect of Test Compounds on E. faecium, MRSA, S. epidermidis, PAO1 and MDRAB Biofilm Formation:
(§3) Inhibition assays were performed by taking an overnight culture of bacterial strain and subculturing it at an OD600 of 0.01 into the necessary media (brain heart infusion for E. faecium, tryptic soy broth with a 0.5% glucose supplement (TSBG) for MRSA, Luria-Bertani (LB) media for MDRAB, Luria-Bertani media without NaCl (LBNS) for PAO1 and tryptic soy broth with a 0.5% glucose supplement and a 3.0% NaCl supplement (TGN) for S. epidermidis. Stock solutions of predetermined concentrations of the test compound were then made in the necessary media. These stock solutions were aliquoted (100 μL) into the wells of the 96-well PVC microtiter plate. Sample plates were then wrapped in GLAD Press n′ Seal® followed by an incubation under stationary conditions for 24 h at 37° C. After incubation, the media was discarded from the wells and the plates were washed thoroughly with water. Plates were then stained with 100 μL of 0.1% solution of crystal violet (CV) and then incubated at ambient temperature for 30 min. Plates were washed with water again and the remaining stain was solubilized with 200 μL of 95% ethanol. A sample of 125 μL of solubilized CV stain from each well was transferred to the corresponding wells of a polystyrene microtiter dish. Biofilm inhibition was quantitated by measuring the OD540 of each well in which a negative control lane wherein no biofilm was formed served as a background and was subtracted out.
as §3, with “2-(2-amino-1H-benzo[d]imidazol-6-ylcarbamoyl)-3,4,5,6-tetrachlorobenzoic acid hydrochloride” for “test compound”, “media. Samples were then doped with 10.0 μM FeSO4 with samples with no test compound to examine effects of 10.0 μM FeSO4 on biofilm formation.” for “media.”

[1] = tested on: vancomycin-resistant Enterococcus faecium (VRE); assay: Inhibition of VRE (E. faecium) biofilm formation (crystal violet); type: cell-based; details: E. faecium; FeSO4 alone, no test compound
Method: as §1, §2, §3
as §3, with “2-(2-amino-1H-benzo[d]imidazol-6-ylcarbamoyl)-3,4,5,6-tetrachlorobenzoic acid hydrochloride” for “test compound”, “media. Samples were then doped with 10.0 μM FeSO4 with samples with no test compound to examine effects of 10.0 μM FeSO4 on biofilm formation.” for “media.”

MRSA = assay: Inhibition of MRSA biofilm formation (crystal violet); type: cell-based, Staphylococcus aureus; details: FeSO4 alone, no test compound

O=S(=O)([O-])[O-].[Fe+2] [FeSO4, reference compound]
increase of biofilm formation (biofilm mass) (S. epidermidis): 1.25 times
increase of biofilm formation (biofilm mass) [1]: 1.37 times
increase of biofilm formation (biofilm mass) (MRSA): 1.28 times
